Test results from PubChem BioAssay AID2060600 (Molecular Pharmacology Branch, DTP, NCI, 2025).
Where “and” joins values, the source holds several entries; their conditions need not be identical. Identical values can stand only once.

Test system: 996289-038-R-J1-PDC complex spheroid viability
Assay: Anticancer human tumor 996289-038-R-J1-PDC patient-derived colon adenocarcinoma cell line growth inhibition [CLK]
Conditions: for viability, T/C: stronger effect = lower value
Excerpt: A high-throughput screen of multi-cell type tumor spheroids was designed to identify active combinations of […] and targeted small molecules. Complex spheroids include a stromal component modeled by human endothelial cells (HUVEC) and fibroblasts modeled by human mesenchymal stem cells (MSCs). The concentration ranges selected for each drug and investigational agent were based upon clinically achievable concentrations if the clinical Cmax of the agent was known.
Compounds. The drugs and investigational agents: cirtuvivint (SM08502; NSC835563), CC-671 (NSC850746), vemurafenib (NSC761431), tapotoclax (NSC804041), sotorasib (NSC818433), adagrasib (NSC831453), MRTX-1133 (NSC836407), BAY2416964 (NSC825713), copanlisib (NSC816437), inavolisib (NSC800729), abemaciclib (NSC768073), osimertinib (NSC779217), entinostat (NSC756642), eltanexor (KPT-8602, NSC794443), venetoclax (NSC766270), ceralasertib (NSC777638), bortezomib (NSC756655), olaparib (NSC753686), talazoparib (NSC767125), alisertib (NSC759677), peposertib (NSC802822), gemcitabine (NSC613327), 5-fluorouracil (NSC19893), SN-38 (NSC673596), oxaliplatin (NSC266046), paclitaxel (NSC125973), and doxorubicin (NSC123127), were obtained from the National Cancer Institute (NCI) Developmental Therapeutics Program Chemical Repository. The FDA-approved anticancer drug set is available from the Developmental Therapeutics Program at https://dtp.cancer.gov/organization/dscb/obtaining/available plates.htm. […] The stock solutions were prepared in dimethyl sulfoxide (DMSO, Sigma-Aldrich, St. Louis, MO, cat. D2650), except for the platinum complexes which were prepared in saline (Quality Biological, Gaithersburg, MD, cat. 114-055-101), at 800-fold the tested concentration and stored at -70 degrees C prior to their use. All drugs and investigational agents were tested over a range starting from a high concentration at or near the clinical Cmax and decreasing in half-log increments. If the clinical Cmax for an agent had not been determined, the highest concentration tested was 10 microM.
Cell Culture. All cells were maintained in an incubator at 37 degrees C and 5% CO2 with 95% humidity. The PDC lines were cultured according to standard operating procedures established by the NCI PDMR. Briefly, all PDCs were thawed and cultured in Matrigel-coated flasks prepared with a working solution of 1X Ham's F-12 nutrient mix, without supplementation (Invitrogen, Waltham, MA, cat. 11765054), 100 U/mL penicillin-streptomycin (Invitrogen, cat. 15140122), and 2.5% Matrigel (Corning Inc., Corning, NY, cat. 354248) for the first three passages. The 947758-054-R-J2-PDC line was cultured in 6B/Colon 1A media, which includes advanced DMEM/F-12 (Thermo Fisher Scientific, cat. 12634028), 10 mM HEPES (Thermo Fisher Scientific, cat. 15630080), 1X GlutaMAX supplement (Thermo Fisher Scientific, cat. 35050061), 0.1 mg/mL primocin (InvivoGen, cat. ant-pm-2), 10% defined fetal bovine serum, heat inactivated (HyClone Laboratories Inc., cat. SH30070.03HI), 1.25 mM N-Acetyl-L-cysteine (Sigma-Aldrich, cat. A9165), 10 mM nicotinamide (Sigma-Aldrich, cat. N0636), 1X B-27 supplement (Thermo Fisher Scientific, cat. 17504044), 1X N-2 supplement (Thermo Fisher Scientific, cat. 17502048), and 10 microM Y-27632 dihydrochloride (Tocris Bioscience, cat. 1254). The 876862-298-R-J1-PDC was cultured in 6E media, which includes all 6B/Colon 1A media components plus 50% L-WRN conditioned media (ATCC, cat. CRL-3276), 50 ng/mL recombinant human EGF recombinant protein (hEGF; Thermo Fisher Scientific, cat. PHG0311), 10 ng/mL recombinant human fibroblast growth factor 10 (hGFG-10; PeproTech, cat. 100-26), 1 ng/mL recombinant human fibroblast growth factor 2 (hFGF-2; PeproTech, cat. 100-18B), and 1 µM prostaglandin E2 (PGE2; Tocris, cat. 2296). The 227483-062-R1-J1-PDC line was cultured in Panc media, containing all 6E components except hFGF-2, with the addition of 500 nM SB-431542 (Selleckchem, cat. S1067) and 10 nM gastrin (Tocris, cat. 3006). […]
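Note: spheroids exposed to the agents for 7 days before readout.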

Row | Compound | IC50 (curve of compound) | viability, T/C (compound 0.0316 µM) | viability, T/C (compound 0.1 µM) | viability, T/C (compound 0.316 µM) | viability, T/C (compound 1 µM) | viability, T/C (compound 3.16 µM) | viability, T/C (compound 10 µM) | also measured
1 | C#Cc1c(F)ccc2cc(O)cc(-c3ncc4c(N5CC6CCC(C5)N6)nc(OCC56CCCN5CC(F)C6)nc4c3F)c12 (centres undefined) | 1.58 µM and 1 µM | 95.8% and 98.9% | 80.1% and 91.3% | 65.1% and 73.6% | 59.3% and 49.8% | 41.1% and 37.4% | 30.7% and 33.3% | 
2 | C=CC(=O)Nc1cc(Nc2nccc(-c3cn(C)c4ccccc34)n2)c(OC)cc1N(C)CCN(C)C | > 0.3 µM |  |  |  |  |  |  | viability, T/C (compound 0.000949 µM): 99.1% and 105%; viability, T/C (compound 0.003 µM): 106% and 96.1%; viability, T/C (compound 0.00949 µM): 101% and 98.5%; viability, T/C (compound 0.03 µM): 92.6% and 93.1%; viability, T/C (compound 0.0949 µM): 93% and 92%; viability, T/C (compound 0.3 µM): 81.2% and 69.9%
3 | CC(C)CC(NC(=O)C(Cc1ccccc1)NC(=O)c1cnccn1)B(O)O (centres undefined) | 0.00484 µM and 0.0035 µM |  |  |  |  |  |  | viability, T/C (compound 0.000949 µM): 98.5% and 113%; viability, T/C (compound 0.003 µM): 78.9% and 56.8%; viability, T/C (compound 0.00949 µM): 9.23% and 6.16%; viability, T/C (compound 0.03 µM): 0.73% and 1.24%; viability, T/C (compound 0.0949 µM): 0.59% and 0.71%; viability, T/C (compound 0.3 µM): 0.55% and 1.04%
4 | CC(Nc1ccc2c(c1)OCCn1cc(N3C(=O)OCC3C(F)F)nc1-2)C(N)=O (centres undefined) | 6.04 µM and 4.5 µM | 97.5% and 100% | 78.5% and 75.5% | 72.1% and 74.9% | 63.5% and 60.5% | 54.1% and 53.5% | 46.5% and 44.3% | 
5 | CC1(C)CCC(CN2CCN(c3ccc(C(=O)NS(=O)(=O)c4ccc(NCC5CCOCC5)c([N+](=O)[O-])c4)c(Oc4cnc5[nH]ccc5c4)c3)CC2)=C(c2ccc(Cl)cc2)C1 | 8.2 µM and 9.04 µM | 108% and 106% | 94.2% and 83.6% | 101% and 109% | 109% and 100% | 118% and 121% | 38.2% and 44.7% | 
6 | CCc1c2c(nc3ccc(O)cc13)-c1cc3c(c(=O)n1C2)COC(=O)[C@]3(O)CC | 0.135 µM and 0.165 µM | 60.8% and 61.9% | 55.7% and 58.6% | 45.8% and 50.8% | 25.7% and 30.8% |  |  | viability, T/C (compound 0.00316 µM): 98.9% and 99.3%; viability, T/C (compound 0.01 µM): 81.9% and 72.3%
7 | CN1CCN(c2cc(C(=O)Nc3cc4cc(-c5cnn(C)c5)ccc4cn3)ccn2)CC1 |  | 102% [middle of 12 runs] | 95.1% [middle of 12 runs] | 71.7% [middle of 12 runs] | 4.43% [middle of 11 runs] | 1.12% [middle of 11 runs] | 0.43% [middle of 9 runs] | IC50 (compound alone, run of 08/14/2023): 461 nM [middle of 10 runs]
8 | CNC(=O)c1ccc(Nc2nc(OC3CCCC3)c3c(-c4ccc5nc(C)oc5c4)c[nH]c3n2)c(OC)c1 |  | 120% [middle of 12 runs] | 119% [middle of 12 runs] | 78.9% [middle of 12 runs] | 62.1% [middle of 12 runs] | 61.1% [middle of 12 runs] | 63.1% [middle of 12 runs] | IC50 (compound alone, run of 08/15/2023): > 10 µM and 8.19 µM
9 | COC1C=CCC(C)C(C)S(=O)(=O)NC(=O)c2ccc3c(c2)N(CC2CCC21)CC1(CCCc2cc(Cl)ccc21)CO3 (centres undefined) | 5.36 µM and 5.44 µM | 101% and 104% | 88.7% and 93.9% | 93.5% and 97.9% | 78.9% and 89.3% | 64.2% and 59.8% | 33.9% and 39% | 
10 | COc1c(OCCCN2CCOCC2)ccc2c3n(c(=NC(=O)c4cnc(N)nc4)nc12)CCN3 | 0.0836 µM and 0.0645 µM | 66.9% and 64.2% | 45.9% and 46.1% | 31.9% and 30.1% | 20.4% and 22.4% |  |  | viability, T/C (compound 0.00316 µM): 87.7% and 97.2%; viability, T/C (compound 0.01 µM): 75.6% and 64.2%
11 | Cn1ncnc1[C@H]1c2n[nH]c(=O)c3cc(F)cc(c23)N[C@@H]1c1ccc(F)cc1 | > 0.1 µM | 99% and 117% | 85.3% and 95.5% |  |  |  |  | viability, T/C (compound 0.000316 µM): 98% and 109%; viability, T/C (compound 0.001 µM): 90.6% and 97.8%; viability, T/C (compound 0.00316 µM): 107% and 108%; viability, T/C (compound 0.01 µM): 103% and 105%
12 | NC(=O)C(=Cn1cnc(-c2cc(C(F)(F)F)cc(C(F)(F)F)c2)n1)c1cncnc1 | 0.0744 µM and 0.0789 µM |  |  |  |  |  |  | viability, T/C (compound 0.00949 µM): 83% and 87.8%; viability, T/C (compound 0.03 µM): 63% and 63.2%; viability, T/C (compound 0.0949 µM): 49.2% and 52.4%; viability, T/C (compound 0.3 µM): 28.8% and 28.9%; viability, T/C (compound 0.949 µM): 19.9% and 22.7%; viability, T/C (compound 3 µM): 18.5% and 21.2%
13 | Nc1ccccc1NC(=O)c1ccc(CNC(=O)OCc2cccnc2)cc1 | 6.4 µM and 7.34 µM | 88.5% and 105% | 89.2% and 81.2% | 91.8% and 98.1% | 87.1% and 85% | 61.8% and 65.7% | 42.5% and 44.2% | 
14 | Nc1ccn(C2OC(CO)C(O)C2(F)F)c(=O)n1 (centres undefined) | > 10 µM | 82% and 89.3% | 62.9% and 70.5% | 62.4% and 68.2% | 55.8% and 65.7% | 54.8% and 69.3% | 47% and 59% | 
15 | O=c1[nH]cc(F)c(=O)[nH]1 | > 10 µM | 99.2% and 101% | 83.9% and 82.2% | 83.3% and 88.9% | 79.7% and 78.6% | 77.9% and 85.8% | 73.3% and 74.8% | 

More lines, main results first:

Row | IC50 (curve of compound) | Compound | viability, T/C (compound 0.0316 µM) | viability, T/C (compound 0.1 µM) | viability, T/C (compound 0.316 µM) | viability, T/C (compound 1 µM) | viability, T/C (compound 3.16 µM) | viability, T/C (compound 10 µM) | also measured
16 | 4.83 µM and 4.71 µM | C=C(F)C(=O)N1CCN(c2nc(OCC3CCCN3C)nc3c2CCN(c2cccc4cccc(Cl)c24)C3)CC1CC#N (centres undefined) | 100% and 113% | 91.7% and 107% | 100% and 101% | 108% and 101% | 78.5% and 76% | 1.09% and 1.7% | 
17 | > 10 µM | C=CC(=O)N1CCN(c2nc(=O)n(-c3c(C)ccnc3C(C)C)c3nc(-c4c(O)cccc4F)c(F)cc23)C(C)C1 (centres undefined) | 97.5% and 115% | 85.3% and 98% | 109% and 101% | 112% and 114% | 124% and 117% | 103% and 116% | 
18 | > 10 µM | CC(CO)NC(=O)c1cc(-c2ccc(Cl)cc2)nn(-c2cnn(C)c2)c1=O (centres undefined) | 104% and 103% | 99.9% and 95.8% | 94.6% and 96.1% | 92.1% and 100% | 103% and 92.2% | 88.4% and 88.7% | 
19 | > 10 µM | CC1COCCN1c1cc(C2(S(C)(=N)=O)CC2)nc(-c2ccnc3[nH]ccc23)n1 (centres undefined) | 103% and 102% | 97.6% and 89.7% | 96.9% and 106% | 97.9% and 102% | 97.8% and 101% | 84.4% and 81.6% | 
20 | > 10 µM | CCCS(=O)(=O)Nc1ccc(F)c(C(=O)c2c[nH]c3ncc(-c4ccc(Cl)cc4)cc23)c1F | 95.8% and 104% | 87.2% and 87.3% | 94.7% and 101% | 103% and 110% | 94.8% and 101% | 77.8% and 67.8% | 
21 | > 1 µM | CCN1CCN(Cc2ccc(Nc3ncc(F)c(-c4cc(F)c5nc(C)n(C(C)C)c5c4)n3)nc2)CC1 | 92.3% and 99.6% | 91.2% and 96.8% | 86.5% and 94.9% | 86.9% and 95% |  |  | viability, T/C (compound 0.00316 µM): 93.4% and 99.5%; viability, T/C (compound 0.01 µM): 98.7% and 84%
22 | > 10 µM | O=C(c1cc(Cc2n[nH]c(=O)c3ccccc23)ccc1F)N1CCN(C(=O)C2CC2)CC1 | 99.9% and 109% | 98.6% and 86.6% | 103% and 108% | 99.1% and 105% | 105% and 113% | 93.9% and 104% | 
